Entries after “also recorded” stand apart in the source; their conditions may differ.
Key:
SARS-CoV-2 [1] = format: cell-based
[2] = biological target: SARS-CoV-2 spike RBD (331–528 amino acids) (Severe acute respiratory syndrome coronavirus 2, UniProt P0DTC2); assay: biochemical; format: binding
[3] = biological target: SARS-CoV-2 spike RBD: hACE2 (Severe acute respiratory syndrome coronavirus 2, UniProt P0DTC2); format: biochemical
[4] = tested on: spike protein–ACE2 interaction; conditions: not tested against virally infected cells; cited from earlier work
[5] = tested on: SARS-CoV-2 (isolate USA WA1/2020); assay: microbe, parasite or virus in culture; format: cell-based; conditions: Severe acute respiratory syndrome coronavirus 2, Calu-3
SARS-CoV-2 [6] = conditions: 10 μM, after 48 h; cited from earlier work
in vitro = conditions: human
ACE2 = conditions: read-out: IC50 exopeptidase activity; cited from earlier work
SARS-CoV-2 [7] = conditions: Vero cells; cited from earlier work
SARS-CoV-2 [8] = conditions: cited from earlier work
SARS-CoV-2 [9] = conditions: cited from earlier work; remark: listed apart in the source

## CC(C)NCC(O)COc1ccc(COCCOC(C)C)cc1 (racemic) [bisoprolol, (±)-Bisoprolol hemifumarate]
SARS-CoV-2 [1]
  SARS-CoV-2 adsorption to Vero E6 cells: statistically decreased SARS-CoV-2 adsorption
[2]
  binding to the RBD spike in MST: did not bind
[3]
  disruption of the interaction between the RBD and ACE2: none of the compounds tested were able to disrupt the interaction

## O=c1c(O)c(-c2ccc(O)c(O)c2)oc2cc(O)cc(O)c12 [Quercetin]
[4]
  IC50: 7 µM

## CCC(CC)COC(=O)[C@H](C)N[P@](=O)(OC[C@H]1O[C@@](C#N)(c2ccc3c(N)ncnn23)[C@H](O)[C@@H]1O)Oc1ccccc1 [Remdesivir]
[5]
  EC50: 0.08 µM

## CC(C)NCC(O)COc1ccc(CC(N)=O)cc1 (stereo not drawn) [atenolol]
SARS-CoV-2 [6]
  inhibition of SARS-CoV-2-induced cytotoxicity of Caco-2 cells: 25.84%
SARS-CoV-2 [1]
  SARS-CoV-2 adsorption to Vero E6 cells: statistically decreased SARS-CoV-2 adsorption

## CC(C)(C)NCC(O)COc1cccc2c1CCC(=O)N2 (stereo not drawn) [carteolol]
[2]
  Kd: 0.459 ± 0.111 µM
[3]
  disruption of the interaction between the RBD and ACE2: none of the compounds tested were able to disrupt the interaction

## COc1ccccc1OCCNCC(O)COc1cccc2[nH]c3ccccc3c12 (stereo not drawn) [carvedilol]
SARS-CoV-2 [6]
  inhibition of SARS-CoV-2-induced cytotoxicity of Caco-2 cells: did not show activity
[5]
  EC50: 7.57 µM
In vitro
  CC50: 18.1 µM
SARS-CoV-2 [1]
  SARS-CoV-2 adsorption to Vero E6 cells: statistically decreased SARS-CoV-2 adsorption; also recorded: highest reduction on SARS-CoV-2 adsorption
[2]
  Kd: 0.364 ± 0.022 µM
[3]
  disruption of the interaction between the RBD and ACE2: none of the compounds tested were able to disrupt the interaction

## Oc1c(I)cc(Cl)c2cccnc12 [cliquinol]
ACE2
  IC50: 5.36 µM
SARS-CoV-2 [7]
  EC50: 12.6 µM

## CCCCC/C=C\C/C=C\CCCCCCCC(=O)O [linoleic acid]
[3]
  disruption of the interaction between the RBD and ACE2: not able to disrupt the interaction

## CC(C)NCC(O)COc1cccc2[nH]ccc12 (stereo not drawn) [pindolol, Pindolol]
[2]
  Kd: 0.57 ± 0.144 µM
[3]
  disruption of the interaction between the RBD and ACE2: none of the compounds tested were able to disrupt the interaction

## COc1ccc2nc3cc(Cl)ccc3c(Nc3cc(CN4CCCC4)c(O)c(CN4CCCC4)c3)c2n1 [pyronaridine]
SARS-CoV-2 [8]
  efficacy in a mouse model infected with SARS-CoV-2: demonstrated efficacy
SARS-CoV-2 [9]
  activity in A549-ACE2 cells: sub-micromolar

## CCN(CC)CCCC(C)Nc1c2ccc(Cl)cc2nc2ccc(OC)cc12 (stereo not drawn) [quinacrine]
SARS-CoV-2 [9]
  activity in A549-ACE2 cells: sub-micromolar

## CCN(CC)CCOc1ccc2c(c1)C(=O)c1cc(OCCN(CC)CC)ccc1-2 [tilorone]
SARS-CoV-2 [9]
  activity in A549-ACE2 cells: sub-micromolar

Source: paper PMC9380819 (ACS Omega, 2022)
